Reference: PMC2774768 (Journal of the American Chemical Society, 2009)

System: HeLa cells
Assay: Confocal microscopy of peptide uptake and localization
Type: cell-based
Conditions: 1.0 μM peptide, 1 h, serum-free DMEM with 25 mM HEPES pH 7.3, fixed

## AcK(5-Fam)AKKSRRC(Ger)VLL [compound 4]
  Uptake of peptide at 4 °C, fixed cells (confocal): still able to enter the cells

## AcK(5-Fam)C(Acm)KKSRRC(Ger)-NH2 [2a]
  Uptake of peptide at 4 °C, fixed cells (confocal): substantial uptake of the peptide
